Read-outs that look alike come from different tables or passages of the source.
Tests used:
[1] = target: T1, L-fucose dehydrogenase (L-FDH) (Pseudomonas sp, UniProt Q52472); type: biochemical; conditions: for Residual Activity (%): inhibitor or metal salt 2 mM in reaction solution, None = 100
T1 construct: L-FDH was accumulated in the cell portion; made in house; host or cells: Pseudomonas sp; No. 1143 (FERM BP-2056), the natural producing strain isolated from soil; enzyme purified from its cells, not recombinant
T1 sequence (Q52472 1-329): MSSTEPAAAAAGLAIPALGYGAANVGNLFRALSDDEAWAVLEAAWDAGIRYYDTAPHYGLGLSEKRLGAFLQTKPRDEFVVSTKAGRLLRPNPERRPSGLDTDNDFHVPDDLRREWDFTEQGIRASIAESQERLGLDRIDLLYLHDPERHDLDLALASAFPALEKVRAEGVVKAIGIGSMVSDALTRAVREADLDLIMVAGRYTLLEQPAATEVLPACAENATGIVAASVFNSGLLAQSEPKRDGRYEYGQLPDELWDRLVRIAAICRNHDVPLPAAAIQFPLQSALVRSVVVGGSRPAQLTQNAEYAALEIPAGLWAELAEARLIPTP
Description: (§1) To 2.5 ml of Tris-imidazole-sodium acetate buffer solution (solution containing 0.12 M each is adjusted to pH of 9.5 with 4 N NaOH) is added 0.2 ml of 15 mM NADP^+ solution After keeping at 37° C. for 5 minutes, 0.1 ml of an enzyme solution is added and 0.2 ml of 150 mM L-fucose solution is further added to the system to initiate the reaction. Immediately thereafter, the reaction mixture is transferred to a cell for measurement of absorbance (1 cm light path) kept at 37° C. and absorbance is measured at the wavelength of 340 nm for 2 minutes or, if necessary, over a longer time period. One unit is an amount of enzyme that produces 1 μmole of NADPH for one minute.

[2] = target: T1, L-fucose dehydrogenase (L-FDH); experiment: L-FDH substrate and coenzyme specificity (determination of activity, NADPH at 340 nm); type: biochemical, Pseudomonas sp. No. 1143; conditions: for specificity of the enzyme to substrate sugar (relative activity): L-fucose = 100%, NADP+ as coenzyme; for coenzyme requirement (relative activity): NADP+ = 100%, L-fucose as substrate
Description: As shown in the following reaction equation, the enzyme oxidizes L-fucose to L-fuconolactone in the presence of L-fucose and NADP+ and at the same time reduces NADP^+ to NADPH.
Furthermore, the enzyme requires NADP^+ (100%) as coenzyme but reacts very little with NAD^+ (1%).
as §1

[3] = target: T1, L-fucose dehydrogenase (L-FDH); experiment: Optimum pH and temperature, pH stability and thermal stability of L-FDH; type: biochemical, Pseudomonas sp. No. 1143
Description: By heat treatment at 30° C. for 60 minutes, the enzyme is stable at a pH value of 8.0 to 10.5 but is unstable at a pH value below 6.0.
as §1

[4] = Polyacrylamide gel isoelectrofocusing of L-FDH; type: physicochemical, Pseudomonas sp. No. 1143
[5] = metal salts and inhibitors, 2 mM

[Ca+2].[Cl-].[Cl-] [CaCl2]
inhibition and activation of enzyme activity [1, 5]: not observed

O=S(=O)([O-])[O-].[Cd+2] [CdSO4]
Residual Activity (%) [1]: 2%

O=S(=O)([O-])[O-].[Cu+2] [CuSO4]
inhibition and activation of enzyme activity [1, 5]: not observed

O=C[C@@H](O)[C@H](O)[C@H](O)CO [D-arabinose]
specificity of the enzyme to substrate sugar (relative activity) [2]: 1%

O=C(O)CN(CCN(CC(=O)O)CC(=O)O)CC(=O)O [EDTA]
inhibition and activation of enzyme activity [1]: not observed

[Cl][Hg][Cl] [HgCl2]
Residual Activity (%) [1]: 2%

NC(=O)CI [Iodoacetamide]
Residual Activity (%) [1]: 91%

C[C@H](O)[C@@H](O)[C@@H](O)[C@H](O)C=O [L-fucose]
specificity of the enzyme to substrate sugar (relative activity) [2]: 100%

O=C[C@@H](O)[C@H](O)[C@H](O)[C@@H](O)CO [L-galactose]
specificity of the enzyme to substrate sugar (relative activity) [2]: 96%

O=S(=O)([O-])[O-].[Mg+2] [MgSO4]
inhibition and activation of enzyme activity [1, 5]: not observed

NC(=O)c1ccc[n+]([C@@H]2O[C@H](COP(=O)([O-])OP(=O)(O)OC[C@H]3O[C@@H](n4cnc5c(N)ncnc54)[C@H](OP(=O)(O)O)[C@@H]3O)[C@@H](O)[C@H]2O)c1 [NADP^+, oxidized nicotinamide adenine dinucleotide phosphate]
coenzyme requirement (relative activity) [2]: 100%

NC(=O)c1ccc[n+]([C@@H]2O[C@H](COP(=O)([O-])OP(=O)(O)OC[C@H]3O[C@@H](n4cnc5c(N)ncnc54)[C@H](O)[C@@H]3O)[C@@H](O)[C@H]2O)c1 [NAD^+, nicotinamide adenine dinucleotide]
coenzyme requirement (relative activity) [2]: 1%

[N-]=[N+]=[N-].[Na+] [NaN3]
inhibition and activation of enzyme activity [1, 5]: not observed

O=S(=O)([O-])[O-].[Ni+2] [NiSO4]
inhibition and activation of enzyme activity [1, 5]: not observed

O=C(O)c1cc[c]([Hg][Cl])cc1 [PCMB]
Residual Activity (%) [1]: 18%

O=S(=O)([O-])[O-].[Zn+2] [ZnSO4]
Residual Activity (%) [1]: 81%

c1cnc2c(c1)ccc1cccnc12 [o-phenanthroline]
inhibition and activation of enzyme activity [1, 5]: not observed

c1ccc(-c2ccccn2)nc1 [α,α'-dipyridyl]
inhibition and activation of enzyme activity [1, 5]: not observed

L-fucose dehydrogenase [L-FDH]
pH at which the enzyme is unstable ([3]; heat treatment at 30° C. for 60 minutes): below 6.0
temperature up to which the enzyme is stable ([3]; heat treatment for 10 minutes, FIG. 4): up to 40 °C
isoelectric point [4]: 5.2

Source: patent US5260197A, “L-fucose dehydrogenase, a process for production thereof, quantitative assay for L-fucose using said enzyme and a kit for quantitative assay” (Noda Institute for Scientific Research, priority 1988, dated 1993)
